Measurements taken from publication PMC7679302 (Environmental Science and Pollution Research International, 2020).
Marks after values point to notes of the source that are not given here.

How the values were obtained:
juvenile L. siliquoidea = test system: juvenile L. siliquoidea; parameters: method as in Gilroy et al. ([2017]); conditions: ref Gilroy et al. ([2017]); cited from earlier work
[1] = test system: glochidia of L. siliquoidea; parameters: method as in Gilroy et al. ([2017]); conditions: ref Gilroy et al. ([2017]); cited from earlier work
amphipods H. azteca = experiment: 21 d range-finding sediment test, amphipods; format: in vivo, Hyalella azteca; conditions: n = 3
Protocol: (§1) Range-finding tests of 21 d were completed with juvenile mussels, amphipods and mayflies to assist with the selection of the concentrations to be used in final testing. Nominal concentrations in range-finding tests were 0.1, 1, 10, 100, and 1000 mg/kg, based on dry weight of sediment. Range-finding test conditions were identical to those described in the manuscript for chronic sediment tests with the exception of test duration.
Amphipods were fed 2.5 mg Tetra-min twice per week during weeks one and two, and three times during week three. At the end of the test, amphipods were removed and the survivors were counted and weighed.

mayfly Hexagenia spp. [2] = experiment: Chronic 42-day sediment test with mayflies (survival, growth); conditions: measured, n = 6
Protocol: (§3) Nominal concentrations were 10, 30, 100, 300, and 1000 mg/kg for juvenile freshwater mussels and 3, 10, 30, 100, and 300 mg/kg for amphipods and mayflies, and were based on the results of range-finding tests (detailed in Supplementary Materials). […] For each PPCP, the concentration of solvent used was consistent across treatments.
(§4) The sediments were mixed for 24 h, left open in a fume hood for 3–5 days for the acetone to evaporate, and then stored at 4 °C until use. […] All beakers were aerated for 1 week under testing conditions prior to the addition of organisms, and throughout the tests. Duration of toxicity tests varied depending on the species and endpoint of interest (see below). Water quality parameters were collected for each test (Table S1).
(§5) Briefly, eggs of Hexagenia spp. […] Prior to testing, eggs were hatched and nymphs were grown in aerated 20-L aquaria containing culture sediment (depth: 2.5 cm) and culture water (depth: 10 cm) for 6 to 7 weeks.
(§6) Ten mayflies (5–8 mg wet weight) were added to each beaker (three replicates for each control and PPCP concentration). Two tests were conducted for each compound. […] At the end of the test, mayflies were removed and surviving animals from each of the three replicates were counted and weighed.

mayflies Hexagenia spp. = experiment: 21 d range-finding sediment test, mayflies; format: in vivo; conditions: n = 3
Protocol: as §1
At the end of the test, survival and wet weight of mayflies in each replicate were recorded.

[3] = Acute 48 h aqueous toxicity test with glochidia (viability); format: in vivo, Lampsilis siliquoidea; conditions: Lampsilis siliquoidea, in vivo, other: aqueous (water-only) exposure, 48-h aqueous exposure, n = 4, read-out: Viability (mean, % (standard deviation))
Description: (§2) Aqueous acute toxicity tests were based on the American Society for Testing and Materials (ASTM [2013]) protocols for conducting toxicity tests with early life stages of freshwater mussels. Gravid female L. siliquoidea were collected from an established reference site in the Maitland River (ON) and kept in ECCC’s Aquatic Life Research Facility (Canada Centre for Inland Waters, Burlington, ON). Glochidia were removed from gravid females and their viability (i.e., ability to close their valves) was assessed. Glochidia from a minimum of three gravid mussels whose glochidia exceeded 90% viability were pooled and exposed to a geometric series of nominal concentrations (0, 0.0025, 0.025, 0.25, 2.5, 25 mg/L) of either FIN or MGA plus a solvent control. Tests were conducted in 250-mL glass beakers (unaerated and unfed) with culture water. After 24 and 48 h of exposure, glochidia viability was assessed in a minimum of 100 glochidia per replicate (four replicates). Water samples were collected at the beginning and end of the tests, and frozen pending chemical analysis.

[4] = test system: Lampsilis siliquoidea glochidia; experiment: as above; format: in vivo; conditions: for Viability (mean, % (standard deviation)): 48-h aqueous exposure, n = 4
Description: as §2

[5] = test system: juvenile mussels L. siliquoidea; experiment: 21 d range-finding sediment test, juvenile mussels; format: in vivo
Protocol: as §1
After 21 d, mussels were recovered and transferred to Petri dishes filled with clean sand and housed in large trays of aerated culture water to assess burial ability.

amphipod Hyalella azteca = experiment: Chronic 42-day sediment test with amphipods (survival, growth, reproduction, sex ratio)
Protocol: Dechlorinated municipal tap water was used for cultures and toxicity tests. Both cultures and toxicity tests were held at 25 °C with a photoperiod of 16 h light:8 h dark, and amphipods were fed finely ground Tetra-Min fish food flakes (Tetra GMBH, Melle, Germany). Juvenile amphipods were removed weekly from breeding containers and used in toxicity tests.
Two tests were conducted for each compound. Amphipods were fed ground Tetra-Min twice per week during weeks 1 and 2, three times during week 3, and 5 mg three times per week during weeks 4 to 6. Surviving adults were counted, weighed as a group, and examined under a dissecting microscope to identify males (enlarged second gnathopods) and females, and the number of juveniles was recorded.

mayfly Hexagenia spp. [6] = conditions: Hexagenia spp. (mixture of H. rigida and H. limbata), in vivo, 42 days, pH 8.3
Protocol: as §3, §4, §5, §6

[7] = natural and simulated sunlight; ref Qu et al. [2012]; cited from earlier work
[8] = test system: goldfish (Carassius auratus); parameters: method as in Upjohn Company [1996]; conditions: 1 mg/L MGA for 21 days; ref Upjohn Company [1996]; cited from earlier work
[9] = test system: African clawed frog (Xenopus laevis) larvae; parameters: method as in Finch et al. [2013]; conditions: chronic exposure to 100 ng/L MGA; ref Finch et al. [2013]; cited from earlier work
D. magna [10] = test system: D. magna; parameters: method as in Haeba et al. [2008]; conditions: ref Haeba et al. [2008], cited from earlier work
D. magna [11] = conditions: ref Minguez et al. ([2014]); cited from earlier work
[12] = 0.1 mg/kg dry weight nominal, n = 3
[13] = 1 mg/kg dry weight nominal, n = 3
[14] = 10 mg/kg dry weight nominal, n = 3
[15] = 100 mg/kg dry weight nominal, n = 3
[16] = Hyalella azteca, in vivo, 42 days, pH 8.3

## CN[C@H]1CC[C@@H](c2ccc(Cl)c(Cl)c2)c2ccccc21 [sertraline]
Juvenile L. siliquoidea
  28-day LC50: 0.04 µg/mL
[1]
  24-h LC50: 0.06 µg/mL

## C=C1C[C@H]2[C@@H]3C=C(C)C4=CC(=O)CC[C@]4(C)[C@H]3CC[C@]2(C)[C@@]1(OC(C)=O)C(C)=O [Melengestrol acetate]
Amphipods H. azteca; 0.1 mg/kg dry weight nominal
  Growth, mean (SEM): 1.0 (0.09) mg wet weight
  Survival (%), mean (SEM): 100 (3.8) %
Amphipods H. azteca; 1 mg/kg dry weight nominal
  Growth, mean (SEM): 1.0 (0.07) mg wet weight
  Survival (%), mean (SEM): 100 (0.0) %
Amphipods H. azteca; 10 mg/kg dry weight nominal
  Growth, mean (SEM): 1.1 (0.10) mg wet weight
  Survival (%), mean (SEM): 95 (2.2) %
Amphipods H. azteca; 100 mg/kg dry weight nominal
  Growth, mean (SEM): 0.7 (0.15) mg wet weight
  Survival (%), mean (SEM): 95 (2.2) %
Amphipods H. azteca; 1000 mg/kg dry weight nominal
  Survival (%), mean (SEM): 0^a (0.0) %
Mayfly Hexagenia spp. [2]; melengestrol acetate 1 mg/kg dw sediment (0.002 mg/L water)
  Survival (percent of initial animals added), mean (SEM): 95 (2.2) %
Mayfly Hexagenia spp. [2]; melengestrol acetate 12 mg/kg dw sediment (0.04 mg/L water)
  Survival (percent of initial animals added), mean (SEM): 90 (2.6) %
Mayfly Hexagenia spp. [2]; melengestrol acetate 37 mg/kg dw sediment (0.25 mg/L water)
  Survival (percent of initial animals added), mean (SEM): 93 (2.1) %
Mayfly Hexagenia spp. [2]; melengestrol acetate 76 mg/kg dw sediment (0.5 mg/L water)
  Survival (percent of initial animals added), mean (SEM): 92 (4.0) %
Mayflies Hexagenia spp.; 0.1 mg/kg dry weight nominal
  Growth, mean (SEM): 33 (0.2) mg wet weight
  Survival (%), mean (SEM): 100 (0.0) %
Mayflies Hexagenia spp.; 1 mg/kg dry weight nominal
  Growth, mean (SEM): 30 (0.9) mg wet weight
  Survival (%), mean (SEM): 97 (3.3) %
Mayflies Hexagenia spp.; 10 mg/kg dry weight nominal
  Growth, mean (SEM): 31 (1.2) mg wet weight
  Survival (%), mean (SEM): 100 (0.0) %
Mayflies Hexagenia spp.; 100 mg/kg dry weight nominal
  Growth, mean (SEM): 20^a (0.7) mg wet weight
  Survival (%), mean (SEM): 100 (0.0) %
Mayflies Hexagenia spp.; 1000 mg/kg dry weight nominal
  Growth, mean (SEM): 7.4^a (0.24) mg wet weight
  Survival (%), mean (SEM): 37^a (8.8) %
[3]; 0.005 mg/L mean measured
  viability at 48 h, 0.005 mg/L: 86%
[3]; 0.05 mg/L mean measured
  viability at 48 h, 0.05 mg/L: 82%
[3]; 0.3 mg/L mean measured
  viability at 48 h, 0.3 mg/L: 85%
[3]; 1.9 mg/L mean measured
  viability at 48 h, 1.9 mg/L: 82%
[3]; 4 mg/L mean measured
  viability at 48 h, 4 mg/L: 70%
[4]; 4 mg/L MGA, water-only
  Decrease in viability: 20%
[4]; 0.05 mg/L mean measured
  Viability (mean, % (standard deviation)): 82 (2.1)^b %
[4]; 1.9 mg/L mean measured
  Viability (mean, % (standard deviation)): 82 (3.3)^b %
[4]; Lampsilis siliquoidea, in vivo, 48 h
  NOEC: 1.9 mg/L^b
[4]; viability, acute 48 h
  ChV (geometric mean of NOEC and LOEC): 2.8 mg/L
[5]; [12]
  Burial (%), mean (SEM): 85 (4.8) %
  Survival (%), mean (SEM): 93 (3.3) %
[5]; [13]
  Burial (%), mean (SEM): 97 (7.0) %
  Survival (%), mean (SEM): 97 (3.3) %
[5]; [14]
  Burial (%), mean (SEM): 90(5.8) %
  Survival (%), mean (SEM): 97 (3.3) %
[5]; [15]
  Burial (%), mean (SEM): 90 (0.0) %
  Survival (%), mean (SEM): 100 (0.0) %
[5]; 1000 mg/kg dry weight nominal, n = 3
  Burial (%), mean (SEM): 68 (5.8) %
[5]; 1000 mg/kg dry weight nominal, n = 3, 1000 mg/kg
  Survival (%), mean (SEM): 77 (8.8) %
Amphipod Hyalella azteca; [16]
  ChV, sediment: 53 mg/kg
  LOEC, overlying water: 0.5 mg/L
  LOEC, sediment: 76 mg/kg
  NOEC, overlying water: 0.25 mg/L
Amphipod Hyalella azteca; melengestrol acetate 76 mg/kg dw sediment (0.5 mg/L water), measured, 42-day, n = 10
  Females (percent of surviving amphipods), mean (SEM): 60 (4.5) %
Amphipod Hyalella azteca; survival, growth, 42-day, dry weight sediment, measured
  NOEC, sediment: 37 mg/kg
Mayfly Hexagenia spp. [6]
  ChV, overlying water: 0.1 mg/L
  ChV, sediment: 21 mg/kg
  LOEC, overlying water: 0.25 mg/L
  LOEC, sediment: 37 mg/kg
  NOEC, overlying water: 0.04 mg/L
  NOEC, sediment: 12 mg/kg
[7]
  Direct photolysis half-life: approximately 45 min
[8]
  Toxicity: No toxicity was observed
[9]
  Larval size (length and weight) vs controls: significantly smaller
  Mortality or developmental effects: no mortality or developmental effects were observed

## CC(C)C(=O)Nc1ccc([N+](=O)[O-])c(C(F)(F)F)c1 [flutamide]
D. magna [10]; concentrations up to 1 mg/L
  Effect on maturation and embryonic development: delayed the maturation of female D. magna and inhibited the embryonic development of neonates
D. magna [10]
  48-h EC50 for immobilization: 2.7 µg/mL

## CN(C)CCC=C1c2ccccc2CCc2ccccc21 [amitriptyline]
D. magna [11]
  48-h EC50: 4.8 µg/mL
Juvenile L. siliquoidea
  14-day LC50: 0.4 µg/mL
[1]
  24-h LC50: 0.3 µg/mL
